Assay results reported in patent publication US5086053A, “Derivatives of 1,3,4-thiadiazole, a method of obtaining them and pharmaceutical compositions containing them” (Sanofi, priority 1988, dated 1992).
Where a name gives a salt, the structure may show the parent alone. Read-outs that look alike come from different tables or passages of the source.

Experiments:
[1] = system: M1 central muscarinic cholinergic receptors; experiment: Antagonism to rotatory behaviour induced by intrastriatal injection of pirenzepine in the mouse; type: in vivo, mouse (female, Swiss, CD 1); conditions: for change in vivo at 3 mg/kg: Mus musculus, po, read-out: % inhibition of pirenzepine-induced rotations
Protocol: Intrastriatal injection of PZ into the mouse induces rotatory behaviour. Antagonism to this behaviour by the products according to the invention was studied.
The products according to the invention were administered in doses of 0.3 or 3 mg/kg orally after being solubilized in distilled water or suspended in a 5% solution of gum arabic. The controls were given pure solvent under the same conditions.
The animals used were female mice (Swiss, CD 1, Charles River, France), body weight between 25 and 30 grams.
Pirenzepine was dissolved in a phosphate buffer, the pH of the solution being 6.
The products under study or solvents thereof were orally administered, using a probang, in a volume of 0.4 ml per 20 g body weight.
The number of contralateral rotations (in the opposite direction to the side of the injection) was counted for three 2-minute periods after injection of pirenzepine (minutes 2-4, 8-10 and 13-15) and was then totalled for each animal. Each treatment comprised three to four doses and ten animals per dose. For each treatment, the total number of rotations and the percentage inhibition relative to the control batch (solvent) was calculated.

[2] = target: T1, type M1 muscarinic cholinergic receptor (Rattus norvegicus, UniProt P08482); experiment: biochemical; type: binding; conditions: for ratio R between the IC50 for receptors M1 and M2 (selectivity): values correspond to IC50 3H-NMS (M2) / IC50 3H-PZ (M1)
T1 sequence (P08482 1-460): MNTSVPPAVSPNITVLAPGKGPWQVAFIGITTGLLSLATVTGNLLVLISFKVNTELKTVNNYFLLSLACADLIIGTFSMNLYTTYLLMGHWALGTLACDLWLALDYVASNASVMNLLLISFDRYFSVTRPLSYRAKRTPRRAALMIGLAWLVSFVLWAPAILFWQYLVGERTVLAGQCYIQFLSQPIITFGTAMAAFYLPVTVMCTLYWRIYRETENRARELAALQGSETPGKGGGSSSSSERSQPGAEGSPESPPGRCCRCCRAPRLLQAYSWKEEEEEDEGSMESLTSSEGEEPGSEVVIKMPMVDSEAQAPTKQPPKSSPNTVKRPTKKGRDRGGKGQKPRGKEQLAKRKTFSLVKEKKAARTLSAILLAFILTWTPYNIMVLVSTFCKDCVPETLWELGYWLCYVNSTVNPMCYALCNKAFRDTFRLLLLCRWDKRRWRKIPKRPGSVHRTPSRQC
Protocol: a) Search for an affinity for the type M1 muscarinic cholinergic receptor
The interaction of molecules with type M1 muscarinic receptors was studied in vitro on homogenized rat hippocampus, by studying the displacement of tritiated pirenzepine form its specific tagging sites. 10 μl portions of homogenized rat hippocampus (5% w/v) in an Na2 HPO4 buffer (50 mM, pH 7.40) were incubated at 4° C. for 2 hours in the presence of ^3 H--Pz (76 Ci/mmol/l nM final), with increasing concentrations of the product under study. The final volume was 2 ml. The reaction was stopped by centrifuging for 10 minutes at 50 000 g. After decantation and washing of the bottoms, the tagged radioactivity was counted by liquid scintillation. Non-specific tagging was determined in the presence of 10 μM of atropine sulphate. The 50 inhibiting concentration (IC50) was determined graphically.

[3] = target: T2, type M2 muscarinic cholinergic receptor (Cavia porcellus, UniProt H0VRN8); experiment: Affinity for type M2 muscarinic cholinergic receptor: displacement of tritiated N-methylscopolamine (3H-NMS) on homogenized smooth muscle of guinea-pig ileum; type: binding; conditions: displacement of 3H-NMS, 30° C., 20 minutes
T2 construct: studies in vitro on homogenized smooth muscle of guinea-pig ileum; from tissue; host or cells: guinea-pig ileum smooth muscle homogenate
T2 sequence (H0VRN8 1-466): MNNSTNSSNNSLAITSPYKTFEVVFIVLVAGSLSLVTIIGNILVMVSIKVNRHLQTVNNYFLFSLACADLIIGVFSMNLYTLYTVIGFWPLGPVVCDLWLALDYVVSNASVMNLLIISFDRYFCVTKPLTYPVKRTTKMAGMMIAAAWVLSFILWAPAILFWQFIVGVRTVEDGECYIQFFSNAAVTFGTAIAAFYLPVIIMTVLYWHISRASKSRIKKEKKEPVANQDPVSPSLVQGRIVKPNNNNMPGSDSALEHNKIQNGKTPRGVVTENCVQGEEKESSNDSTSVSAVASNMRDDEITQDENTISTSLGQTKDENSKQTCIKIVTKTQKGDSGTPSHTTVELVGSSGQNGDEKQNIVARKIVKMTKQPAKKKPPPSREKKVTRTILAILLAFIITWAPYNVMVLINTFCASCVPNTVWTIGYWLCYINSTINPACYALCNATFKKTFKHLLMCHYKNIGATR
Description: BIOCHEMICAL STUDY IN VITRO
M1 type receptors are concentrated in certain zones of the brain such as the hippocampus, the cerebral cortex, the corpus striatum and the sympathetic ganglia. These connection sites can be selectively tagged with tritiated pirenzepine (^3 H--PZ). Type M2 receptors predominate in the heart and the ileum and can be tagged with tritiated N-methylscopolamine (^3 H--NMS). In order to determine the selectivity of the products according to the invention, with regard to sites M1 and M2, a study was made of their interaction in vitro, with high-affinity tagging with ^3 H--PZ and ^3 H--NMS, on rat hippocampus membranes and smooth muscle from guinea-pig ileum respectively.
b) Search for an affinity for the type M2 muscarinic cholinergic receptor
Interaction with type M2 muscarinic receptors was studies in vitro on homogenized smooth muscle of guinea-pig ileum by measuring the displacement of tritiated N-methyl-scopolamine from its specific tagging sites. 50 μl portions of homogenized smooth muscle form guinea-pig ileum (0.625% w/v) in 20 mM of HEPES buffer: 2-((2-hydroxy 4-ethyl) piperazin-1-yl) ethanesulphonic acid containing NaCl (100 mM) and Mg Cl2 (10 mM) (final pH=7.5) were incubated at 30° C. for 20 minutes int eh presence of ^3 H--NMS (85 Ci/mmol/0.3 nM final) with increasing concentrations of the products under test. The final volume was 1 ml. The reaction was stopped by centrifuging for 5 minutes at 15000 g. Non-specific tagging was determined in the presence of […] of atropine sulphate.
The results are expressed as 50% inhibiting concentrations (IC50), i.e. the concentration (in μM) which induces a 50% displacement of the tritiated ligand fixed to the membrane receptors. The IC50 displacement of ^3 H--PZ represents affinity for the M1 receptor, and
The IC50 displacement of ^3 H--NMS represents affinity for the M2 receptor.

[4] = Acute oral toxicity in mice; design: species or system Swiss, CD 1); conditions: mouse, in vivo, female mice, 24 hours after administration, read-out: 50% lethal dose (DL50)
Protocol: The acute toxicity was determined for one product according to the invention: SR 45341 A. The product was orally administered in increasing doses to a batch of 10 female mice (Swiss, CD 1, Charles River, France), body weight 20 g.
The death rate caused by the product under study was noted during the 24 hours after administration of the product. The 50% lethal dose (DL50) was determined, i.e. the dose which killed 50% of the animals.

[5] = 3 mg/kg p.o., 4 hours before pirenzepine 1 μg intrastriatal, *p<0.05, **p<0.01 Student's test
[6] = displacement of 3H-PZ, rat hippocampus homogenate, 4° C., 2 hours, read-out: IC50 3H-PZ (M1)

Row | IC50 [2, 6] | ratio R between the IC50 for receptors M1 and M2 (selectivity) [2] | IC50 [3] | SMILES | change in vivo at 3 mg/kg [1, 5] | other results
1 |  |  |  | CN(Cc1cccnc1)c1nnc(-c2ccc(F)cc2)s1 [SR 45530 A] | -41% | 
2 |  |  |  | Clc1ccc(-c2nnc(NCc3cccnc3)s2)c(Cl)c1 [SR 45459 A] | -29% | 
3 |  |  |  | Clc1ccc(-c2nnc(NCCc3ccccn3)s2)c(Cl)c1 [SR 45492 A] | -50% | 
4 |  |  |  | c1ccc(-c2nnc(NCCN3CCOCC3)s2)cc1 [A, reference compound] | -8% | 
5 |  |  |  | CCN(CC)CCCNc1nnc(-c2ccc(Cl)cc2Cl)s1 [SR 45481 A] | -67% | 
6 | 14 µM | 5 | 70 µM | CNCCCNc1nnc(-c2ccc(Cl)cc2Cl)s1 [SR 45479 A] |  | 
7 | 5.5 µM | 5 | 30 µM | CCN(CC)CCCNc1nnc(-c2c(C)cc(C)cc2C)s1 [SR 45352 A] | -32% | 
8 | 3 µM | 13 | 40 µM | Clc1ccc(-c2nnc(NCCCn3ccnc3)s2)c(Cl)c1 [SR 45504 A] |  | 
9 |  |  |  | CN1CCCC1CCNc1nnc(-c2ccc(Cl)cc2Cl)s1 (centres unmarked) [SR 45490 A] | -73% | 
10 | 3.5 µM | 6 | 27 µM | Cc1cc(C)c(-c2nnc(NCCCN(C)C)s2)c(C)c1Br [SR 45340 A] | -95% | 
11 |  |  |  | CN(C)CCNc1nnc(-c2ccccc2)s1 [C, reference compound] | -12% | 
12 |  |  |  | Cc1cc(C)c(-c2nnc(NCc3cccnc3)s2)c(C)c1 [SR 45417 A] | -43% | 
13 |  |  |  | Fc1ccc(-c2nnc(NCc3ccncc3)s2)cc1 [SR 45482 A] | -53% | 
14 |  |  |  | FC(F)(F)c1cccc(-c2nnc(NCCN3CCOCC3)s2)c1 [B, reference compound] |  | % inhibition of pirenzepine-induced rotations ([1]; 0,3 mg/kg p.o., 4 hours before pirenzepine 1 μg intrastriatal, *p<0.05, **p<0.01 Student's test): Inactive; % inhibition of pirenzepine-induced rotations [1, 5]: Inactive
15 |  |  |  | Clc1ccc(-c2nnc(NCc3cccnc3)s2)cc1 [SR 45488 A] | -49% | 
16 |  |  |  | CN(C)CCCNc1nnc(-c2ccc(F)cc2)s1 [SR 45421 A] | -38% | 
17 | 0.7 µM | 37 | 26 µM | CN(C)CCCNc1nnc(-c2ccc(Cl)cc2Cl)s1 [SR 45422 A] | -50% | 
18 |  |  | 80 µM | CNC1CCN(c2nnc(-c3ccccc3)s2)CC1 [SR 44825 A, 2-(4-methylaminopiperidino)-5-phenyl-1,3,4-thiadiazole dihydrochloride] |  | 
19 | 3.6 µM | 7 | 26 µM | CN1CCN(CCCNc2nnc(-c3ccc(Cl)cc3)s2)CC1 [SR 45489 A] | -29% | 
20 |  |  |  | CN1CCCC(CNc2nnc(-c3ccc(Cl)cc3)s2)C1 (centres unmarked) [SR 45491 A, 2-[(N-methyl 3-piperidyl)methylamino]-5-(4-chlorophenyl)-1,3,4-thiadiazoledihydrochloride] | -57% | 
21 | 2.4 µM | 8 | 20 µM | CCN(CCCN(C)C)c1nnc(-c2ccc(F)cc2)s1 [SR 45483 A] | -20% | 
22 |  |  |  | Fc1ccc(-c2nnc(NCc3cccnc3)s2)cc1 [SR 45447 A] | -62% | 
23 | 4.5 µM | 11 | 50 µM | CN(C)CCCNc1nnc(-c2ccc(Cl)cc2)s1 [SR 45480 A] | -54% | 
24 | 3 µM | > 30 | > 100 µM | CN(C)CCCNc1nnc(-c2ccccc2)s1 [SR 44824 A] | -27% | 
25 |  |  |  | Clc1ccc(-c2nnc(NCCCn3ccnc3)s2)c(Cl)c1 [SR - A] | -60% | 
26 |  |  |  | CN1CCC(N(C)c2nnc(-c3ccccc3)s2)CC1 [SR 44828 A, Dihydrochloride and hydrate of 2-[N-methyl N-(1-methyl 4-piperidyl)amino-5-phenyl-1,3,4-thiadiazole] |  | IC50 [2]: 9 µM; change in vivo at 3 mg/kg ([1]; 4 h): -26%
27 | 4.5 µM | 17 | 80 µM | Clc1ccc(-c2nnc(NCCCN3CCOCC3)s2)cc1 [SR 45520 A] | -75% | 
28 | 5 µM | 7 | 34 µM | CCN(CC)CCCCNc1nnc(-c2ccccc2)s1 [SR 45339 A, Dihydrochloride of 2-(4-diethylaminobutylamino)-5-phenyl-1,3,4-thiadiazole] | -77% | 
29 | 0.8 µM | 15 | 12 µM | Clc1ccc(-c2nnc(NCCCN3CCCC3)s2)c(Cl)c1 [SR 45458 A] | -28% | 

Row | SMILES | IC50 [2, 6] | ratio R between the IC50 for receptors M1 and M2 (selectivity) [2] | IC50 [3] | change in vivo at 3 mg/kg [1, 5] | other results
30 | CNCCCNc1nnc(-c2c(C)cc(C)cc2C)s1.Cl.Cl [SR 45418 A, 2-(3-methylaminopropylamino) 5-(2,4,6-trimethylphenyl) 1,3,4-thiadiazole dihydrochloride] | 20 µM | > 5 | > 100 µM | -77% | 
31 | Cc1cc(C)c(-c2nnc(NCCCN(C)C)s2)c(C)c1.Cl.Cl [SR 45341 A, 2-(3-dimethylaminopropylamino)-5-(2,4,6-trimethylphenyl)-1,3,4 thiadiazole dihydrochloride] | 0.45 µM | 160 | 72 µM | -74% | LD50 at 24 h [4]: > 300 mg/kg
